Measurements from patent publication US6177592A, “Compounds” (priority 1997, dated 2001).

Experiments:
[1] = tested on: heat shock protein of 70 kDa (HSP70); assay: Induction of heat shock protein of 70 kDa in HL-60; format: cell-based, human; parameters: key: -: no induction was noted; ±: the induction was slight; indicates degree of intensity of induction and the more the numbers of "+", the more the intensity of induction; ++: the more the numbers of "+", the more the intensity of induction; +++: the more the numbers of "+", the more the intensity of induction; details: 5 μM CM
NO production = assay: Inhibition of LPS-induced NO production in RAW264.7; format: cell-based, mouse; details: RAW 264.7
Method: Inhibition activity of GM to NO production and to cell damage was measured as follows using mouse macrophage cell strain RAW264.7 cells (ATCC TIB 71) and LPS.
Dulbecco-modified Eagle's medium (manufactured by Life Technologies Oriental; 11054-020) containing 2 mM of L-glutamine (manufactured by Life Technologies Oriental; 25030-149) containing no Phenol Red containing 5 ml of 10% fetal calf serum (manufactured by Gibco) containing 1.5×10^6 cells of RAW 264.7 was incubated in a six-well tissue culture plate in the presence of 5% carbon dioxide gas at 37° C. for 12 hours, 50μl of 50μg/ml LPS (manufactured by Sigma; L-2012) was added, then each 50 μl of 250 )i M Mn or 100 μH GM was added to each well, incubation was further continued for additional 12 hours and, after that, NO2^- produced by oxidation of NO in the medium and amount of viable cell numbers were measured. Incidentally, a sect-Lon where no LPS was added and a section where no GM was added were prepared as controls. […]

tumor necrosis factor = assay: TNF production from LPS-induced celiac macrophage; format: cell-based, mouse (CDF1)
Method: (2) Paraffin oil (Cosmo Bio) (2 ml) was intraperitoneally administered to female CDF1 mice of eight weeks age to induce celiac macrophage (M.phi.). After one week from administration of paraffin oil, 4 ml of an RPMI-1640 medium (Gibco) was intraperitoneally infused, well massaged and recovered to give celiac cells.
The celiac cells were washed with an RPMI-1640 medium twice and suspended in an PPMI1640 medium containing 10% of fetal calf serum (FCS; High-Clone) to adjust the cell concentration to 1×10^6 cells/ml. The cell solution (1 ml) prepared as such was planted on a 24-well plate and incubated in a CO2 incubator at 37° C. for two hours. Non-adhesion cells contained in the supernatant liquid after incubation was removed and the adhesion cells were used as celiac M . […]
After the incubation, 100 μl of 100 ng/ml LPS (manufactured by Sigma) was added and incubation was conducted for 24 hours more. After completion of the incubation, the supernatant liquid was recovered therefrom and the amount of TNF-a produced therein was determined using a commercially available ELISA kit (manufactured by Endogen).

NIH 3T3/Y-1 = assay: Colony formation of control-vector NIH 3T3/Y-1 cells; format: cell-based; details: 5 μM GM, nine days; control 83.3 ± 8.4
Method: (1) Transformation to Escherichia coli HB101 was conducted by control plasmid pcD2-Y expressing G418-resisting gene [Mol. Cell. Biol., volume 7, pages 2745-2752 (1987)] and plasmid pcD2-16E7 which was capable of expressing both HPV 16 type E7 and G418-resisting gene [Jpn. J. Cancer Res., volume 82, pages 1340-1343 (1991)], then incubation was conducted in an L-broth medium and plasmid was extracted from the collected cells and purified by a cesium chloride density gradient ultracentrifugation to give vector plasmid for introduction of gene.
The purified plasmid (10 μg) was introduced into NIH 3T3 cells using a cationic liposome (TransIT LT-1, manufactured by Takara Shuzo), the cells were selected at 37° C. under the condition of 5% CO2 for two weeks in a Dulbecco-modified Eagle's medium containing 10% calf serum which contained 0.4 mg/ml of G418 (Gibco) and the resulting colonies were cloned to establish each nine strains of NIH 3T3 cells into which control vector was introdcd and NIH 3T3 cells which was cancerated with HPV 16 type E7.
The cell strains into which control vector was introduced were named NIH 3T3/Y-1, NIH 3T3/Y-2, NIH 3T3/Y-3, NIH 3T3/Y-4, NIH 3T3/Y-5, NIH 3T3/Y-6, NIH 3T3/Y-7, NIH 3T3/Y-8 and […]). […]
A part of the suspension was taken out and cell density was counted by a Neubauer's hemocytometer. […]

Row | Structure (SMILES) | Induction of Heat Shock Protein [1] | inhibition of NO production (NO production) | inhibition activity of TNF production (in words) (tumor necrosis factor; Example 8) | minimal effective concentration (tumor necrosis factor; Mus musculus, Macrophage, read-out: concentration which significantly inhibited TNF production, LPS-induced, 24 hours) [µM] | Numbers of Colonies (Mean Value ± SD) (NIH 3T3/Y-1)
1 | N[C@@H](CSC1C=C(O)C(=O)C1)C(=O)O (some centres unmarked) [CM] | - |  |  |  | 
2 | N[C@@H](CCC(=O)N[C@@H](CSC1C=C(O)C(=O)C1)C(=O)NCC(=O)O)C(=O)O (some centres unmarked) [GM, 2-hydroxy-4-glutathion-S-yl-2-cyclopenten-1-one] |  | inhibited the NO production induced by LPS | inhibition activity of the production of tumor necrosis factor | ≥ 10 | 72.0 ± 9.5
